Measurements: patent US20100204254A1, “Use of statins in the prevention and treatment of radiation injury and other disorders associated with reduced endothelial thrombomodulin” (The University of Arkansas for Medical Sciences, priority 2002, published 2010)

Assays:
[1] = system: endothelial cell thrombomodulin (EA.hy926 endothelial cells); assay: Thrombomodulin expression and activity overall (mRNA, protein, surface antigen, activity); format: cell-based, human; set-up: blocking of atorvastatin-induced thrombomodulin upregulation: dose or concentration left out as unconfirmed; details: for blocking of atorvastatin-induced thrombomodulin upregulation: 30 min pre-incubation
Experimental: (§1) Steady-state TM mRNA levels were measured using quantitative real-time RT-PCR (Dr. G. Shipley, Quantitative Genomics Core Laboratory, University of Texas Health Science Center, Houston, Tex.). Human thrombomodulin and b-actin fluorogenic oligonucleotide probes and primers were designed from Genbank sequences, using Primer Express software (Applied Biosystems, Foster City, Calif.) and synthesized by Biosource International (Camarillo, Calif.). Total RNA was extracted using TRIZOL Reagent (Invitrogen, Carlsbad, Calif.) and the RNA samples were treated with RNAse-free DNAse I (Promega, Madison, Wis.). cDNA was synthesized from total RNA in 10 μl total volume, consisting of 6 μl RT master mix (Invitrogen, Carlsbad, Calif.) and a 4-μl RNA sample (30 ng/μl), using a thermocycler (MJR, Waltham, Mass.) for 30 minutes at 50° C. followed by 72° C. for 10 min. Samples were measured in triplicate. An assay-specific sDNA standard spanning a 5-log range and appropriate controls were included. Forty ml of a PCR master mix was pipetted directly onto each well of the cDNA plate utilizing a Biomek 2000 robotic workstation (Beckman, Fullerton, Calif.), and amplified (95° C. for 1 min; 40 cycles of 95° C. for 12 sec, and 60° C. for 1 min) using the 7700 Sequence Detector (Applied Biosystems). The data were normalized to b-actin and presented as molecules of TM transcript/molecules of b-actin transcript×100 (% b-actin).
(§2) Cells were harvested with trypsin/EDTA and lysed in lysis buffer (10 mM Tris, pH7.4, 150 mM NaCl, 1 mM EDTA, IGPAL CA630, 1 mM PMSF). Protein concentration was measured with the BCA assay (Pierce, Rockford, Ill.). Proteins (20 μg/per lane) were resolved by NuPAGE 4-10% Bis-tris gel electrophoresis (Invitrogen, Carlsbad, Calif.) and electrotransferred onto nitrocellulose membranes. Membranes were probed with primary mouse anti-human thrombomodulin antibody (American Diagnostica), followed by application of a secondary horseradish peroxidase-conjugated (HRP) anti-mouse IgG antibody (American Diagnostica). A mouse anti-human b-actin antibody (either from Sigma or Santa Cruz Biotechnology) was used for protein loading control. HRP signals were detected with an enhanced chemiluminescence (ECL) detection system (Amersham Pharmacia Biotech). Band densities were determined from X-Ray film using SigmaGel software (Jandel Scientific, San Rafael, Calif.).
(§3) Cells were examined for surface antigen expression by flow cytometry, using specific phycoerythrin-conjugated mouse antibodies against human TM (CD-141), a general endothelial cell marker (PECAM [CD-31]), and markers of stimulated endothelial cells (tissue factor [CD-142] and P-selectin [CD-62]) (BD Biosciences, San Diego, Calif.). Cell viability was assessed using 7-amino-actinomycin D (7-AAD). Phycoerythrin-conjugated mouse IgG was used as negative control. A total of 1×10^5 cells were used for each analysis. Cells were harvested, stained with appropriate phycoerythin-conjugated antibodies, fixed in 1% paraformaldehyde, and analysis was performed using a FACSCalibur Flow Cytometer (BD Immunocytometry System, San Jose, Calif.), QuantiBRITE-PE beads (BD Biosciences, San Diego, Calif.), and CELLQuest software. Antigen levels were expressed as antibody binding sites (ABS).
(§4) TM activity was assessed by measuring protein C activation in early confluent cells grown on 96-well plates. Cells were washed twice with PBS and incubated with […] protein C and 1 nM thrombin (60 min at 37° C., […] total volume) to generate activated protein C. Excess thrombin was quenched with hirudin ([…], 0.2 ATu/ml). The amount of activated protein C generated was measured by monitoring hydrolysis of chromogenic substrate S-2366 at 5-min intervals at 405 nm in a microplate reader (Bio-TEK Instruments, Winooski, Vt.). The results were expressed as mean OD slope values (DOD/Dt).
Statins, by inhibiting HMG-CoA reductase, reduce the formation of mevalonate (FIG. 7). […]

[2] = system: thrombomodulin protein (EA.hy926 endothelial cells); assay: Western blotting of thrombomodulin protein in cell lysates; format: cell-based, human; details: for Protein (thrombomodulin): same treatments, untreated control = 100, mean ± SEM
Experimental: as §2
Total thrombomodulin protein in cell lysates was measured by western blotting. EA.hy926 cells were grown to early (90%+) confluence. The cells were washed with 1×PBS twice and lysed by adding 1 ml lysis buffer (10 mM Tris, pH 7.4; 150 mM NaCl; 1 mM EDTA; 1% NP-40 or IGPAL CA630; 1 mM PMSF), and the lysate was collected into eppendorf tubes. Protein concentrations were measured with the BCA protein assay kit (Pierce). Protein aliquots of each sample were mixed with 4× loading buffer, placed in a boiling water bath for 5 min, and subsequently separated by NuPAGE 4-10% Bis-tris gel electrophoresis (Invitrogen Life Technologies). The proteins were transferred to a nitrocellulose membrane, probed with primary monoclonal mouse anti-human thrombomodulin antibody at 1:1000 and secondary anti-mouse IgG-HRP antibody at 1:2000 (American Diagnostica, Inc.) using standard procedures. The HRP signal was detected using ECL detection reagents (Amersham Life Sciences) and visualized on X-ray film.

[3] = system: cell surface thrombomodulin (EA.hy926 endothelial cells); assay: Flow cytometry, cell surface thrombomodulin antigen (CD-141); format: cell-based, human; details: for Antigen (cell surface thrombomodulin): same treatments, mean ± SEM, method gives antibody binding sites
Experimental: as §3

[4] = system: thrombomodulin mRNA (EA.hy926 endothelial cells); assay: Fluorogenic probe RT-PCR, steady-state thrombomodulin mRNA; format: cell-based, human; set-up: concentration dependence of thrombomodulin mRNA: dose or concentration left out as unconfirmed; details: for mRNA (thrombomodulin): FPP 10 μM, squalene 100 μM, GGPP 10 μM, atorvastatin 10 μM, intermediates 30 min before 24-hour atorvastatin, mean ± SEM, method gives % b-actin; for increase in thrombomodulin transcript: 10 mM atorvastatin
Experimental: as §1

[5] = system: thrombomodulin activity (EA.hy926 endothelial cells); assay: Protein C activation assay (thrombomodulin activity); format: cell-based, human; set-up: concentration dependence of cell surface thrombomodulin activity: dose or concentration left out as unconfirmed; details: for Activity (thrombomodulin, protein C activation): same treatments, mean ± SEM, method gives OD slope; for influence of enzyme inhibitors on thrombomodulin activity: data not shown; for effect of nitric oxide donors on thrombomodulin activity: 10 mM
Experimental: as §4
The functional activity of thrombomodulin was assessed by measuring the ability of the endothelial cells to activate protein C. All samples and reagents were diluted in APC assay diluent (20 mM Tri-HCl, pH7.4, 100 mM NaCl, 2.5 mM CaCl2, 0.5% BSA). Exponentially growing EA.hy 926 endothelial cells were seeded into 96 well plates in triplicate (2×10^4 per well). Cells were allowed to attach and grow overnight, and then washed twice with PBS and incubated for 60 min in 60 μl total volume at 37° C. with 0.5 μM protein C and 1 nM thrombin to generate activated protein C. Excess thrombin was blocked with a superstoichiometric amount of hirudin (20 μl, 0.16 U/μl, 570 nM). Generation of active protein C was determined by using a chromogenic substrate S-2366 and absorbance at 405 nm was measured by using a Vmax kinetic microplate reader.

[6] = system: tissue factor (EA.hy926 endothelial cells); assay: Tissue factor (CD-142) expression after TNF-a exposure; format: cell-based, human; details: atorvastatin pre-treatment, data not shown
Experimental: as §3
TNF-a potently downregulates endothelial thrombomodulin, an effect that is pathophysiologically significant in sepsis and related disorders. Therefore, the effect of atorvastatin on TNF-a-induced downregulation of endothelial cell thrombomodulin was examined. Exposure of EA.hy926 cells to TNF-a (1-20 ng/ml for 24 hours) caused a dose-dependent increase in apoptosis (4-fold at 10 ng/ml) and tissue factor (2.5-fold) and decreased thrombomodulin by 75% (data not shown). […]

[7] = system: EA.hy926 endothelial cells; assay: Apoptosis after TNF-a exposure; format: cell-based, human; details: atorvastatin pre-treatment, data not shown
Experimental: TNF-a potently downregulates endothelial thrombomodulin, an effect that is pathophysiologically significant in sepsis and related disorders. Therefore, the effect of atorvastatin on TNF-a-induced downregulation of endothelial cell thrombomodulin was examined. Exposure of EA.hy926 cells to TNF-a (1-20 ng/ml for 24 hours) caused a dose-dependent increase in apoptosis (4-fold at 10 ng/ml) and tissue factor (2.5-fold) and decreased thrombomodulin by 75% (data not shown). EA.hy926 cells were pre-treated with atorvastatin (10 μM for 30 min) before exposure to TNF-a (1 or 10 ng/ml, 24 hours).

[8] = system: thrombomodulin activity (human intestinal microvascular cells); assay: Protein C activation assay (thrombomodulin activity); format: cell-based
Experimental: as §4

[9] = atorvastatin 10 μM for 30 min before TNF-a 1 or 10 ng/ml, 24 hours
[10] = 24 hours, atorvastatin 0.1-15 mM
[11] = statin before radiation, normal and irradiated cells, 24 hours after irradiation

For `CC(C)=CCC/C(C)=C/CC/C(C)=C/COP(=O)(O)OP(=O)(O)O` [FPP, farnesyl-pyrophosphate], the “blocking of atorvastatin-induced thrombomodulin upregulation” value (“blocking” for short) [1] was “only partially blocked”, the “Protein (thrombomodulin)” value [2] was 94 ± 9 and the “Antigen (cell surface thrombomodulin)” value [3] was 74.3 ± 1.1. The “mRNA (thrombomodulin)” value [4] was 8.2 ± 1.9 and the “Activity (thrombomodulin, protein C activation)” value [5] was 3.6 ± 0.3.

In the case of `CC(C)=CCC/C(C)=C/CC/C(C)=C/CC/C(C)=C/COP(=O)(O)OP(=O)(O)O` [GGPP, geranylgeranyl-pyrophosphate], the “blocking” value [1] is reported as “completely blocked”, the “Protein (thrombomodulin)” value [2] is reported as 124 ± 11 and the “Antigen (cell surface thrombomodulin)” value [3] is reported as 66.6 ± 5. For the same compound, the “mRNA (thrombomodulin)” value [4] was 5.4 ± 0.5 and the “Activity (thrombomodulin, protein C activation)” value [5] was 3.0 ± 0.7.

For `COC(=O)[C@H](CC(C)C)NC(=O)c1ccc(NC[C@@H](N)CS)cc1-c1cccc2ccccc12` [GGTI-298], the “influence of enzyme inhibitors on thrombomodulin activity” value [5] was “increasing thrombomodulin activity”.

For `CCCN(CCCN)N(O)N=O` [PAPA-NONOate, 3-(2-Hydroxy-2-nitroso-1-propylhydrazino)-1-propanamine], the “effect of nitric oxide donors on thrombomodulin activity” value [5] was “mimicked the effect of atorvastatin on thrombomodulin activity”.

For `CC1(C)N([O])C(c2ccccc2)=[N+]([O-])C1(C)C` [PTIO, 2-Phenyl-4,4,5,5-tetramethylimidazoline-1-oxyl 3-oxide], the “effect of NO scavenger on atorvastatin-induced increase in thrombomodulin activity” value ([5]; pre-incubation with 100 mM) was “inhibited the atorvastatin-induced increase in thrombomodulin activity”.

`Cl.N=c1c[n+](N2CCOCC2)[n-]o1` [SIN-1, 3-Morpholinosydnonimine hydrochloride] was tested, and the “effect of nitric oxide donors on thrombomodulin activity” value [5] was “mimicked the effect of atorvastatin on thrombomodulin activity”.

For `CC(C)=CCC/C(C)=C/CC/C(C)=C/CC/C=C(\C)CC/C=C(\C)CCC=C(C)C` [Squalene, squalene], the “blocking” value [1] was “ineffective in blocking”, the “Protein (thrombomodulin)” value [2] was 147 ± 29 and the “Antigen (cell surface thrombomodulin)” value [3] was 60.9 ± 1.9. The “mRNA (thrombomodulin)” value [4] was 5.9 ± 1.0 and the “Activity (thrombomodulin, protein C activation)” value [5] was 2.4 ± 0.6.

`CC(C)c1c(C(=O)Nc2ccccc2)c(-c2ccccc2)c(-c2ccc(F)cc2)n1CC[C@@H](O)C[C@@H](O)CC(=O)O` [atorvastatin] was tested, and the “effect on TNF-a-induced tissue factor expression” value [6] was “did not affect”, the “levels of thrombomodulin gene expression, protein and surface expression under TNF-a” value [1, 9] was “significantly above those of untreated control cells” and the “increase in thrombomodulin protein” value ([2]; 10 mM atorvastatin, 24 hours) was 2- to 3 fold. The “concentration dependence of cellular thrombomodulin protein” value [2, 10] was “prominent dose-dependent increase”, the “thrombomodulin protein, Western blot of cell lysates” value ([2]; irradiated and non-irradiated cells) was “prominent increase in thrombomodulin protein” and the “Protein (thrombomodulin)” value [2] was 403 ± 70. For the same compound, the “effect on TNF-a-induced apoptosis” value [7] was “did not affect”, the “increase in cell surface TM antigen” value ([3]; 10 mM statin, 24 hours) was 2- to 3 fold and the “concentration dependence of cell surface thrombomodulin antigen” value [3, 10] was “prominent dose-dependent increase”. For the same compound, the “Antigen (cell surface thrombomodulin)” value [3] was 146.2 ± 1.9, the “thrombomodulin antigen expression compared to control endothelial cells” value [3, 11] was “significantly higher” and the “increase in thrombomodulin transcript” value ([4]; 8 hours) was 3 fold. The “increase in thrombomodulin transcript” value ([4]; 24 hours) was greater than 10 fold, the “concentration dependence of thrombomodulin mRNA” value ([4]; 24 hours) was “prominent dose-dependent increase” and the “mRNA (thrombomodulin)” value [4] was 71.7 ± 8.8. For the same compound, the “increase in TM activity (protein C activation)” value ([5]; 10 mM statin, 24 hours) was 2- to 3 fold, the “thrombomodulin activity in irradiated endothelial cells” value ([5]; 25 Gy single dose radiation) was “essentially restored normal thrombomodulin activity” and the “concentration dependence of cell surface thrombomodulin activity” value ([5]; 24 hours, different concentrations) was “prominent dose-dependent increase”. For the same compound, the “effect on TNF-a-induced downregulation of thrombomodulin activity” value [5, 9] was “completely counteracted”, the “Activity (thrombomodulin, protein C activation)” value [5] was 4.1 ± 0.3 and the “thrombomodulin activity compared to control endothelial cells” value [5, 11] was “significantly higher”. The “endothelial thrombomodulin activity (protein C activation assay)” value [8] was “significantly affected”.

With `CC(O)(CCO)CC(=O)O` (centres unmarked) [mevalonate, Mevalonate] the “inhibition of atorvastatin-induced thrombomodulin upregulation” value ([1]; 100 mM or 500 mM mevalonate 30 min prior to 24-hour) was “dose-dependent inhibition” and the “inhibition of atorvastatin-induced thrombomodulin upregulation” value ([1]; higher mevalonate concentration) was “virtually complete inhibition”.

For `C=C(CC[C@]12O[C@H](C(=O)O)[C@@](O)(C(=O)O)[C@](C(=O)O)(O1)[C@H](OC(=O)/C=C/[C@@H](C)C[C@@H](C)CC)[C@H]2O)[C@@H](OC(C)=O)[C@H](C)Cc1ccccc1` [zaragozic acid, zaragozic acid A], the “influence of enzyme inhibitors on thrombomodulin activity” value [5] was “no effect”.
